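Test compounds were applied to cells in 96-well plates for 48 hours at 5 doses. The concentration for 50% growth inhibition is given as GI50.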 Active and inactive are the calls of the source. Cut-off read from the data, not from the text of the source: active = GI50 up to about 1.1 µM and inactive = higher.
What was measured:
Experiment in all cases: NCI tumour cell line growth inhibition, 48 h
786-0 = system: 786-0
A549 = system: A549
COLO 205 = system: COLO 205
HCT-116 = system: HCT-116
HOP-62 = system: HOP-62
IGROV-1 = system: IGROV-1
K562 = system: K562
M14 = system: M14
NCI-H23 = system: NCI-H23
OVCAR-3 = system: OVCAR-3
OVCAR-8 = system: OVCAR-8
RPMI-8226 = system: RPMI-8226
SF-539 = system: SF-539
SK-OV-3 = system: SK-OV-3
SNB-75 = system: SNB-75
SW-620 = system: SW-620

Measured: GI50

O=C(CO[N+](=O)[O-])OCC(=O)c1ccccc1
inactive: 786-0 > 100 µM | A549 > 100 µM | COLO 205 > 100 µM | HCT-116 > 100 µM | HOP-62 > 100 µM | IGROV-1 > 100 µM | K562 > 100 µM | M14 > 100 µM | NCI-H23 > 100 µM | OVCAR-3 > 100 µM | OVCAR-8 > 100 µM | RPMI-8226 > 100 µM | SF-539 > 100 µM | SK-OV-3 > 100 µM | SNB-75 > 100 µM | SW-620 > 100 µM

COc1ccc(-c2cc(-c3ccccc3)c(C#N)c(=O)[nH]2)cc1
inactive: 786-0 > 100 µM | A549 > 100 µM | COLO 205 > 100 µM | HCT-116 > 100 µM | HOP-62 > 100 µM | IGROV-1 > 100 µM | K562 > 100 µM | M14 > 100 µM | NCI-H23 > 100 µM | OVCAR-3 > 100 µM | OVCAR-8 > 100 µM | RPMI-8226 > 100 µM | SF-539 > 100 µM | SK-OV-3 > 100 µM | SNB-75 57.7 µM | SW-620 > 100 µM

O=C1Nc2cc(Cl)ccc2N=CC1NC(=O)C(c1ccccc1)c1ccccc1Cl (configuration not stated)
inactive: 786-0 > 100 µM | A549 > 100 µM | COLO 205 > 100 µM | HCT-116 > 100 µM | HOP-62 > 100 µM | IGROV-1 > 100 µM | K562 > 100 µM | M14 > 100 µM | NCI-H23 > 100 µM | OVCAR-3 > 100 µM | OVCAR-8 > 100 µM | RPMI-8226 > 100 µM | SF-539 > 100 µM | SK-OV-3 > 100 µM | SNB-75 > 100 µM | SW-620 > 100 µM

CCOC(=O)C(=Cc1ccc(C(=O)OC)cc1)C(=O)OCC
inactive: 786-0 1.62 µM | A549 3.37 µM | COLO 205 1.85 µM | HCT-116 3.33 µM | HOP-62 2.2 µM | IGROV-1 3.01 µM | K562 2.32 µM | M14 1.69 µM | NCI-H23 1.76 µM | OVCAR-3 3.41 µM | OVCAR-8 2.98 µM | RPMI-8226 1.37 µM | SF-539 1.67 µM | SK-OV-3 13.6 µM | SNB-75 2.07 µM | SW-620 2.24 µM

CCNC(=O)C#CC(=O)NCC
inactive: 786-0 > 100 µM | A549 > 60.5 µM | COLO 205 44.6 µM | HCT-116 21.9 µM | HOP-62 > 100 µM | IGROV-1 > 100 µM | K562 > 45.3 µM | M14 > 100 µM | NCI-H23 > 100 µM | OVCAR-3 > 100 µM | OVCAR-8 > 100 µM | RPMI-8226 > 42.4 µM | SF-539 > 100 µM | SK-OV-3 > 100 µM | SNB-75 > 69 µM | SW-620 > 48 µM

COc1cccc(-c2cc(C(=O)Nc3ccc(Cl)cc3)nc(N)n2)c1
inactive: 786-0 55 µM | A549 64.7 µM | COLO 205 21.4 µM | HCT-116 42.9 µM | HOP-62 > 100 µM | IGROV-1 50.7 µM | K562 40.5 µM | M14 37.3 µM | NCI-H23 75 µM | OVCAR-3 35.3 µM | OVCAR-8 98.9 µM | RPMI-8226 53.1 µM | SF-539 40 µM | SK-OV-3 61 µM | SNB-75 21.4 µM | SW-620 36.7 µM

Cn1c(=O)c2[nH]cnc2n(CC(N)=O)c1=O
inactive: 786-0 > 100 µM | A549 > 100 µM | COLO 205 > 100 µM | HCT-116 > 100 µM | HOP-62 > 100 µM | IGROV-1 > 100 µM | K562 > 100 µM | M14 > 100 µM | NCI-H23 > 100 µM | OVCAR-3 > 100 µM | OVCAR-8 > 100 µM | RPMI-8226 > 100 µM | SF-539 > 100 µM | SK-OV-3 > 100 µM | SNB-75 > 100 µM | SW-620 > 100 µM

From ChEMBL document CHEMBL1201862, “PubChem BioAssay data set” (2004)
